Read-outs that look alike come from different tables or passages of the source.
Assays:
[1] = molecular target: Recombinant human PKC-delta (His-tagged 345-676) (Homo sapiens (Human), UniProt Q05655); test: PKC-delta inhibition assay (HTRF KinEASE kit), PKC-theta/PKC-delta selectivity; format: biochemical; conditions: ratio; for PKC-theta/PKC-delta selectivity: PKC-theta over PKC-delta, HTRF assays; for PKC-theta/PKC-delta selectivity (binned): binned A to G
Experimental: (§1) PKC-theta and PKC-delta biochemical activities were measured using the PKC-theta HTRF KinEASEkit kit, according to manufacturer's instructions (Cisbio, catalogue number 61ST1PEJ). Briefly, the kinase buffer component of the kit was supplemented with 10 mM MgCl2, 1 mM DTT and 0.1% Tween 20. For the PKC-theta assay, STK substrate and ATP were added to provide a final assay concentration of 525 nM and 6.5 μM, respectively. For the PKC-delta assay, STK substrate and ATP were added to provide a final assay concentration of 243 nM and 5.7 μM, respectively. The streptavidin_XL665 and STK antibody-cryptate detection reagents were mixed according to the manufacturer's instructions. Test compounds were diluted in DMSO in a series of 10 semi-log step doses; 10 nL of each compound dose were dispensed in 384 well plates. Recombinant human PKC-theta (His-tagged 362-706) or PKC-delta (His-tagged 345-676) was diluted into kinase buffer to provide a final assay concentration of 10 ng/ml and added to the test compound for 30 minutes on ice. The reaction was started by addition of the substrate and ATP and incubated at 25° C. for 30 minutes or 20 minutes for the PKC-theta and PKC-delta assays, respectively. The detection reagents were added, and the plate was incubated in the dark for 2 hours. Fluorescence was measured on an Envision 2103 plate reader with optical setup for […] in the HTRF mode. The ratio of acceptor and donor emission signals was calculated for each well. Percent inhibition values were calculated from the HTRF ratios at different doses and fitted to a 4-parameter logistic curve to determine IC50 values (see Table 1).

[2] = molecular target: Recombinant human PKC-theta (His-tagged 362-706) (Homo sapiens (Human), UniProt Q04759); test: PKC-theta inhibition assay (HTRF KinEASE kit); format: biochemical; conditions: ATP 6.5 μM
Experimental: as §1

[3] = system: IL-2 secretion by human effector memory T cells (TEM); test: Effector memory T cells IL-2 release assay; format: cell-based; conditions: T-cell, human CD4+ TEM cells, CD3/CD28 bead stimulation, 24 h
Experimental: Test compound-mediated inhibition of NFκB signalling in T cells was assessed by quantification of the IL-2 secretion by human effector memory T cells (TEM) upon treatment and stimulation. Human TEM cells were isolated from buffy coats of healthy donors obtained from the French blood bank. First, peripheral blood mononuclear cells (PBMC) were purified from buffy coats diluted 1:1 with DPBS (Gibco, cat #14190-094) by Pancoll (PAN BIOTECH, cat #P04-60500) density gradient centrifugation at 400×g for 20 minutes. TEM cells were further enriched by negative immuno-magnetic cell sorting using a human CD4+ Effector Memory T Cell Isolation Kit (Miltenyi, cat #130-094-125) according to the manufacturer's instructions. Aliquots of 3×10E6 purified TEM cells were kept frozen in Cryo-SFM medium (PromoCell, cat #C-29912) in gas phase nitrogen until used. Cell purity was verified by flow cytometry analysis of 200 000 PFA-fixed cells previously labelled with monoclonal antibodies anti-CD4-PerCP-Cy5.5 (BD Pharmigen, cat #332772), anti-CD8-V500 (BD Biosciences, cat #561617), anti-CD14-Pacific Blue (Biolegend, cat #325616), anti-CD45 RA-FITC (Biolegend, cat #304106) and anti-CCR7-APC (in CD4+ Effector Memory T Cell Isolation Kit, Miltenyi, cat #130-094-125).
TEM cells were resuspended in complete RPMI medium composed of: RPMI 1640 (Gibco, cat #31870-025), 10% heat inactivated fetal bovine serum (Sigma, cat #F7524), 2 mM GlutaMAX (Gibco, cat #35050-038), 1 mM sodium pyruvate 100× (Gibco, cat #11360-039), 1% MEM non-essential amino acids solution (Gibco, cat #11140-035) and 100 U/mL penicillin, 100 µg/mL streptomycin (Sigma-Aldrich, cat #11074440001). 5,000 cells per well were plated onto flat clear bottom 384 well plates (Corning, cat #3770). 5,000 Dynabeads Human T-Activator CD3/CD28 (Gibco, cat #11132D) were added to each well for cell stimulation. Finally, 10 doses of test compound, originally prepared in DMSO by serial semi-log step dilution, were also added to cells in triplicate wells. Final DMSO concentration in wells was 0.1% in a total volume of 100 µL complete medium. Plates were incubated for 24 h at 37° C. in 5% CO2 atmosphere. After incubation, cell suspensions were centrifuged at 400×g and culture supernatants were recovered and stored at −80° C. Cell viability was assessed by flow cytometry after staining the cells with Fixable Viability Dye eFluor 780 (Invitrogen, cat #65-0865-14). IL-2 levels were determined in cell supernatants using an HTRF human IL-2 detection kit (Cisbio, cat #62HIL02PEH). IL-2 data at the different compound doses were fitted to a 4-parameter logistic curve to determine IC50 values, corresponding to the compound concentration leading to 50% reduction of the maximal IL-2 levels observed in each experiment. Viability data were analysed similarly to exclude cytotoxicity as a cause of IL-2 decrease (see Table 1).

[4] = binned A to H, read-out: PKC-theta HTRF pIC50 (binned) (converted)
[5] = read-out: PKC-theta HTRF pIC50 (converted)
[6] = binned A to G, read-out: PKC-theta IL2 pIC50 (binned) (converted)
[7] = read-out: PKC-theta IL2 pIC50 (converted)

Recombinant human PKC-delta (His-tagged 345-676), sequence (Q05655 345-676): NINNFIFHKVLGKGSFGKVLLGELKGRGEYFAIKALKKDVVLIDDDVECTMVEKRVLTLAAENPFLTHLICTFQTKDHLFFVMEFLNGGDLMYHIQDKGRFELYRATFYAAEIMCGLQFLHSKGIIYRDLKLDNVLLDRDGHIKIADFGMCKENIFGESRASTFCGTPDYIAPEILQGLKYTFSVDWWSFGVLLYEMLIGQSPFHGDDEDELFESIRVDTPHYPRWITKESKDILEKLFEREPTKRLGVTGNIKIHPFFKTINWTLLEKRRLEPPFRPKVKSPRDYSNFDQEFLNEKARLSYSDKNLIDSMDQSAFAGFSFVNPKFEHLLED
Recombinant human PKC-theta (His-tagged 362-706), sequence (Q04759 362-706): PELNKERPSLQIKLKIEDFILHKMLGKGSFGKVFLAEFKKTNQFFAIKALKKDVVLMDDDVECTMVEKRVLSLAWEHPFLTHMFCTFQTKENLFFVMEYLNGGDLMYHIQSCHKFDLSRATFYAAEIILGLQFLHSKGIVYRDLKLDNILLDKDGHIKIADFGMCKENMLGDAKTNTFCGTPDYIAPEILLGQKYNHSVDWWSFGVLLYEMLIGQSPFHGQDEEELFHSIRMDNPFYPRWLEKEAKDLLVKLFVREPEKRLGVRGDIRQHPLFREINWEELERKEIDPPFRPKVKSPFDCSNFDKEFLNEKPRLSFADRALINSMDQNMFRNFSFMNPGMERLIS

| PKC-theta/PKC-delta selectivity [1] | PKC-theta/PKC-delta selectivity (binned) [1] | IC50 [2, 4] [nM] | IC50 [2, 5] [nM] | IC50 [3, 6] [nM] | IC50 [3, 7] [nM] | SMILES |
| --- | --- | --- | --- | --- | --- | --- |
| 11 | D (D means a ratio of between 10 and 20) | ≤ 1 | 1 | 10 to 31.6 | 15.8 | CO[C@]1(C)C(=O)Nc2nccc(-c3nn([C@@H]4CCNC[C@@H]4F)c4ccccc34)c21 (single isomer, unassigned) [Example 90] |
| 19 | D (D means a ratio of between 10 and 20) | 3.16 to 10 | 7.94 | 100 to 316 | 126 | CO[C@]1(C)C(=O)Nc2nccc(-c3nn([C@H]4CCNC[C@H]4F)c4ccccc34)c21 (single isomer, unassigned) [Example 91] |
| 15 | D (D means a ratio of between 10 and 20) | 10 to 31.6 | 12.6 | 100 to 316 | 158 | CO[C@@]1(C)C(=O)Nc2nccc(-c3nn([C@@H]4CCNC[C@@H]4F)c4ccccc34)c21 (single isomer, unassigned) [Example 92] |

Second part, the compound before the results:

| SMILES | PKC-theta/PKC-delta selectivity [1] | PKC-theta/PKC-delta selectivity (binned) [1] | IC50 [2, 4] [nM] | IC50 [2, 5] [nM] | IC50 [3, 6] [nM] | IC50 [3, 7] [nM] |
| --- | --- | --- | --- | --- | --- | --- |
| CC[C@@]1(O)C(=O)Nc2nccc(-c3nn([C@H]4CCNC[C@H]4F)c4ccccc34)c21 (single isomer, unassigned) [Example 82] | 12 | D (D means a ratio of between 10 and 20) | ≤ 1 | 0.794 | 31.6 to 100 | 50.1 |
| CC[C@@]1(O)C(=O)Nc2nccc(-c3nn([C@@H]4CCNC[C@@H]4F)c4ccccc34)c21 (single isomer, unassigned) [Example 83] | 13 | D (D means a ratio of between 10 and 20) | 1 to 3.16 | 1.58 | 31.6 to 100 | 63.1 |
| CC[C@]1(O)C(=O)Nc2nccc(-c3nn([C@H]4CCNC[C@H]4F)c4ccccc34)c21 (single isomer, unassigned) [Example 84] | 14 | D (D means a ratio of between 10 and 20) | 31.6 to 100 | 31.6 | > 1000 | 1260 |
| CC[C@]1(O)C(=O)Nc2nccc(-c3nn([C@@H]4CCNC[C@@H]4F)c4ccccc34)c21 (single isomer, unassigned) [Example 85] | 10 | E (E means a ratio of between 5 and 10) | 31.6 to 100 | 50.1 | > 1000 | 1260 |
| CC[C@@]1(OC)C(=O)Nc2nccc(-c3nn(CC4(F)CCNCC4)c4ccccc34)c21 (single isomer, unassigned) [Example 88] | 14 | D (D means a ratio of between 10 and 20) | 3.16 to 10 | 3.98 | 100 to 316 | 200 |
| CC[C@]1(OC)C(=O)Nc2nccc(-c3nn(CC4(F)CCNCC4)c4ccccc34)c21 (single isomer, unassigned) [Example 89] | 32 | B (B means a ratio of between 30 and 50) | 1 to 3.16 | 2.51 | 31.6 to 100 | 79.4 |
